In ChEMBL document CHEMBL1138823, “Diaminopyrimidine and diaminopyridine 5-HT7 ligands” (Bioorg Med Chem Lett, 2004) one finds Ki data, which are given here for 25 compounds.

The target in test [1] is 5-hydroxytryptamine receptor 7 (Homo sapiens, UniProt P34969). In words: Binding affinity against 5-Hydroxy tryptamine 7 receptor.
The next test has as its target D(2) dopamine receptor (Homo sapiens, UniProt P14416). Briefly: Binding affinity against D2L receptor.
In test [2] the target is 5-hydroxytryptamine receptor 2C (Rattus norvegicus) (UniProt P08909). In words: Binding affinity against 5-Hydroxy tryptamine 2C receptor.
Chain of 5-hydroxytryptamine receptor 2C (Rattus norvegicus) (P08909 whole entry, looked up): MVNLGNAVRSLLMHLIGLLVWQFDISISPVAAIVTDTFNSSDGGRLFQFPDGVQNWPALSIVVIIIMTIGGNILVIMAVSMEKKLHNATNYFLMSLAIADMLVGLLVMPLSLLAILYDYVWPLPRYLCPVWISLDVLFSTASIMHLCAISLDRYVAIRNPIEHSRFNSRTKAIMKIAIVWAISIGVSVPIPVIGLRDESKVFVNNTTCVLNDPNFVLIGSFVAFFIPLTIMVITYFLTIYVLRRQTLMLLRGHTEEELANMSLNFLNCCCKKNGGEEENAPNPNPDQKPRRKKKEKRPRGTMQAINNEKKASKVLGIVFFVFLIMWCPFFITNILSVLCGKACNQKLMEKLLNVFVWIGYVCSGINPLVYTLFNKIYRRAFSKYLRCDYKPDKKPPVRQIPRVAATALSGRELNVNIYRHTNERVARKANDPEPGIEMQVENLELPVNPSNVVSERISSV
Test [3] deals with Adrenergic receptor alpha-1 (Rattus norvegicus). In words: Binding affinity against Alpha1 adrenergic receptor.

Structures are written as SMILES. Where only a bound is given, the exact number is not on record here.

Chain of 5-hydroxytryptamine receptor 7 (P34969 whole entry): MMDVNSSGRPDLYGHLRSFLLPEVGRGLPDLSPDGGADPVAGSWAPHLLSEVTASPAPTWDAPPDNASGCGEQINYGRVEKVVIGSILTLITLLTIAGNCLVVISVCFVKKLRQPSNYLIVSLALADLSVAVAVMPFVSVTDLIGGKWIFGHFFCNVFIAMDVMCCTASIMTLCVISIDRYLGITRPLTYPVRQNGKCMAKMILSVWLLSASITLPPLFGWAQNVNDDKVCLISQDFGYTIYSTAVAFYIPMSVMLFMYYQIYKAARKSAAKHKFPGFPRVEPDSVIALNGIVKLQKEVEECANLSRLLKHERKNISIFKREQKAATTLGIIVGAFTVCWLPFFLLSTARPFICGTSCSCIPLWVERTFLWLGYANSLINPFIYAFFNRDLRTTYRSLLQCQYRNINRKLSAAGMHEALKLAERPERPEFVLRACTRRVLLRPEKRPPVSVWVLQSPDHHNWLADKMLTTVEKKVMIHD
Chain of D(2) dopamine receptor (P14416 whole entry): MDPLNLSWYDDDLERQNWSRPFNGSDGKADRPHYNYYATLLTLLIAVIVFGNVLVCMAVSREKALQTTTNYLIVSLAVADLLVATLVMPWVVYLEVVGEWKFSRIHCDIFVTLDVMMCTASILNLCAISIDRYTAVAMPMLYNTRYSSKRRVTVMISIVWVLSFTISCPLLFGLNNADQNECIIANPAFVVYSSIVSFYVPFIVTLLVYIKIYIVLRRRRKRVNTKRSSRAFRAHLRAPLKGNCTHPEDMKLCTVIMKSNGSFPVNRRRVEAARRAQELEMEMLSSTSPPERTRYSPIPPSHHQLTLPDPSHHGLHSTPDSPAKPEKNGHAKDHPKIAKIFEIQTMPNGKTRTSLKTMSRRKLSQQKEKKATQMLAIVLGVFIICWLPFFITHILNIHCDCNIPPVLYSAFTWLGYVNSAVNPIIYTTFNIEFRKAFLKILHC

As for `C[C@H](Nc1cccc(NCCOc2ccccc2)n1)c1ccccc1`, the inhibition constant Ki in test [1] is > 1000 nM.

For the compound `C[C@H](Nc1ccnc(NCCc2ccccc2)c1)c1ccccc1`, the Ki in test [1] was 0.3 nM.

In turn, `C[C@H](Nc1cncc(NCCc2ccccc2)c1)c1ccccc1` returned an inhibition constant Ki in test [1] of 13 nM. Against the preceding compound, the Ki is about 43-fold higher. On to `C[C@H](Nc1ccnc(NCCOc2ccccc2)n1)c1ccccc1`, for which the Ki in test [1] is 2 nM. Take `C[C@H](Nc1ccnc(NCCOc2ccc(F)cc2)c1)c1ccccc1`: the Ki on D(2) dopamine receptor came to 370 nM; in test [2], 15 nM; in test [1], 0.2 nM. As for `C[C@H](Nc1cc(NCCc2ccccc2)ncn1)c1ccccc1`, the Ki in test [1] came to 33 nM. `CC(Nc1nccc(NCCc2ccccc2)n1)c1ccccc1` (racemic) showed an inhibition constant (Ki) in test [1] of 6 nM. `C[C@H](Nc1cc(NCCc2ccc(F)cc2)ccn1)c1ccccc1` displayed a Ki in test [1] of 4 nM. With `CC(Nc1nccc(NCCOc2ccc(F)cc2)n1)c1ccccc1` (racemic), the Ki in test [3] is 57 nM; on D(2) dopamine receptor, > 1000 nM; in test [2] it was 40 nM; in test [1] it was 1 nM. Regarding `C[C@H](Nc1cccc(NCCOc2ccccc2)c1)c1ccccc1`, in test [1], the Ki is > 1000 nM.

In turn, `C[C@H](Nc1cc(NCCc2ccc(F)cc2)ncn1)c1ccccc1` returned a Ki in test [1] of 5 nM. That is a single-digit nanomolar value.

As to `C[C@H](Nc1cccc(NCCc2ccccc2)c1)c1ccccc1`, in test [1], the Ki was > 1000 nM. For `C[C@H](Nc1cc(NCCc2ccccc2)ccn1)c1ccccc1`, in test [1], affinity was put at a Ki of 3 nM. Still for that read-out and setting: the value for `CC(Nc1ccnc(NCCc2ccc(F)cc2)n1)c1ccccc1` (racemic) was 6 nM. In the case of `C[C@H](Nc1cc(NCCOc2ccccc2)ccn1)c1ccccc1`, in test [1], the affinity, expressed as Ki, was 0.4 nM.

As for `C[C@H](Nc1cc(NCCOc2ccc(F)cc2)ccn1)c1ccccc1`, the Ki on D(2) dopamine receptor was > 1000 nM; in test [2] it was 13 nM; in test [1] it was 0.4 nM. For the compound `C[C@H](Nc1ccnc(NCCOc2ccccc2)c1)c1ccccc1`, in test [1], the Ki stood at 0.4 nM. The compound `C[C@H](Nc1cncc(NCCOc2ccccc2)c1)c1ccccc1` displayed an inhibitory constant (Ki) in test [1] of 4 nM. Still for that read-out and setting: as for `C[C@H](Nc1cccc(NCCc2ccccc2)n1)c1ccccc1`, the figure is > 1000 nM.

As to `C[C@H](Nc1ccnc(NCCOc2ccc(F)cc2)n1)c1ccccc1`, the Ki on D(2) dopamine receptor was > 1000 nM; in test [1] it was 0.3 nM. In test [1], `C[C@H](Nc1cncc(NCCc2ccc(F)cc2)c1)c1ccccc1` came in with an inhibition constant Ki of 16 nM.

`C[C@H](Nc1cc(NCCOc2ccc(F)cc2)ncn1)c1ccccc1` showed an inhibitory constant (Ki) in test [1] of 5 nM. Against the preceding compound, the Ki is about 3.2-fold lower. For `C[C@H](Nc1ccnc(NCCc2ccc(F)cc2)c1)c1ccccc1`, the Ki in test [1] stood at 0.4 nM. As to `C[C@H](Nc1cncc(NCCOc2ccc(F)cc2)c1)c1ccccc1`, the inhibitory constant (Ki) on D(2) dopamine receptor was > 1000 nM; in test [2], 476 nM; in test [1] it was 4 nM. Regarding `C[C@H](Nc1ccnc(NCCc2ccccc2)n1)c1ccccc1`, the Ki in test [1] amounted to 0.6 nM.
